pIC50, pKi: −log10 of the molar value. The source made the active and inactive calls. The calls are words filed in the database; no cut-off is given here.
Tests used:
[1] = molecular target: T1, Estrogen receptor (Homo sapiens, UniProt P03372); assay: Displacement of [3H]estradiol from ERalpha after 4 hrs by scintillation counting
T1 sequence (P03372 whole entry): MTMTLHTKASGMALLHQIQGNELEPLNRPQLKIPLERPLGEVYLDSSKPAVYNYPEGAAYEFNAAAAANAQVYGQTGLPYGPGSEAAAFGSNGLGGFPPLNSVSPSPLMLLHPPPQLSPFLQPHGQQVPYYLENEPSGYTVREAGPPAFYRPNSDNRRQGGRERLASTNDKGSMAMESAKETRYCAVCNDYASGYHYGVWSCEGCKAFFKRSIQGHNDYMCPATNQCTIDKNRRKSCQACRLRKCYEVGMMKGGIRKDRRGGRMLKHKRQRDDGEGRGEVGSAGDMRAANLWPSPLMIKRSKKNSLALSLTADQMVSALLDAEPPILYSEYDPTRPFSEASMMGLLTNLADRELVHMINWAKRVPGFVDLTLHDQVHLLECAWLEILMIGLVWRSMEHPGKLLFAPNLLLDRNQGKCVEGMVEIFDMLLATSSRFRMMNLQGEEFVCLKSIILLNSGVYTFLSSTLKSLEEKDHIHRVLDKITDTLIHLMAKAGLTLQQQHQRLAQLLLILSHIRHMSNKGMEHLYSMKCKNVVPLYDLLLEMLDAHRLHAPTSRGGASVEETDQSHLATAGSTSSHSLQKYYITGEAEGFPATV

[2] = molecular target: Estrogen receptor beta (Homo sapiens, UniProt Q92731); assay: Displacement of [3H]estradiol from ERbeta after 4 hrs by scintillation counting
Chain of Estrogen receptor beta (Q92731 whole entry): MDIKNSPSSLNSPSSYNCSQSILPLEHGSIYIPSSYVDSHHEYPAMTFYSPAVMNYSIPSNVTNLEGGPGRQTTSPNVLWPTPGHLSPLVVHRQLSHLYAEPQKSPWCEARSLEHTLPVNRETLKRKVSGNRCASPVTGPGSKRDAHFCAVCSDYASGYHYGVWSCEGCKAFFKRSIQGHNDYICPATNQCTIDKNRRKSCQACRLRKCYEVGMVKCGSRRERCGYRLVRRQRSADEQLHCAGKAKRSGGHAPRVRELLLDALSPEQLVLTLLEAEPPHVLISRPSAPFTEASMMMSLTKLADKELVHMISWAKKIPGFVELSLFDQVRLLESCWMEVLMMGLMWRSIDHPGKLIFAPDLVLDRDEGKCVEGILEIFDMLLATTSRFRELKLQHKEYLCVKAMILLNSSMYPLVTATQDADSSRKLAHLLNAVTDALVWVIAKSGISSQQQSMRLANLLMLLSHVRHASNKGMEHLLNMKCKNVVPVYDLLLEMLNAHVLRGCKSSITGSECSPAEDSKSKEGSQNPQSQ

[3] = tested on: Rattus norvegicus; assay: […] Sprague-Dawley rat assessed as reduction of bone loss by measuring volumetric bone mineral density administered qd after 4 days post ovariectomy measured after 5 weeks; type: functional, organism-based
[4] = tested on: Rattus norvegicus; assay: AUC (0 to 24 hrs) in rat at 10 mg/kg, po; type: ADME, organism-based, Plasma; design: time < 24 hr, dose 10 mg/kg, route oral; settings: in vivo
[5] = tested on: MCF7; assay: Antiproliferative activity against human MCF7 cells after 48 hrs by [3H]-thymidine incorporation assay; type: functional, cell-based
[6] = molecular target: T1, Estrogen receptor; assay: Binding affinity to ERalpha ligand binding domain
[7] = tested on: Rattus norvegicus; assay: Antiestrogenic activity in young Sprague-Dawley rat assessed as inhibition of estrogen-induced uterine hypertrophy at 0.01 to 1 mg/kg, po for 3 days; type: functional, organism-based
[8] = Selectivity ratio of Ki for ERbeta to Ki for ERalpha
[9] = Cmax in rat at 10 mg/kg, po; type: ADME, organism-based; design: dose 10 mg/kg, route oral; settings: in vivo

**Q.** With `CCCCc1ccc(-c2sc3cc(O)ccc3c2C(=O)c2ccc(OCCN3CCCCC3)cc2)cc1` as the molecule, how does the pKi [1] read?
**A.** Its pKi is 9.60.

**Q.** What about the pKi [2] of the same molecule?
**A.** The pKi was 7.46.

**Q.** What about the Activity [3] of the same molecule?
**A.** The Activity was “Dose-dependent effect”.

**Q.** And the AUC [4]?
**A.** Its AUC is 2337 ng·h/mL.

**Q.** What about the pIC50 [5] of the same molecule?
**A.** Its pIC50 is 7.48.

**Q.** And the pKi [6]?
**A.** Its pKi is 9.60.

**Q.** And the inhibition [7]?
**A.** The inhibition was “Active”.

**Q.** And the Ratio Ki [8]?
**A.** The Ratio Ki was 140.

**Q.** What about the Cmax [9] of the same molecule?
**A.** Its Cmax is 210 ng/mL.
